Reference: publication PMC12728982, “Multichiral Half-Sandwich Ru(II) and Os(II) Anticancer Complexes Containing a Glutathione Synthesis Inhibitor” (Organometallics, 2025)
“Also recorded” adds a separate entry of the source.

Tests used:
[1] = tested on: A549 lung carcinoma cells; test: Antiproliferative activity, SRB assay; type: cell-based, human
Experimental: (§1) The antiproliferative activity against human A549 lung, IGROV-1 ovarian, and HeLa cervical cancer cell lines and MRC5 normal lung fibroblasts was determined by the sulforhodamine B (SRB) assay. […] IGROV-1 is known to be cisplatin-sensitive and subject to hypermutation.
(§2) 2.8 Mammalian cell culture
(§3) The human ovarian cancer cell line, IGROV-1; the human cervical cancer cell line, HeLa; the human […]; and the human non-cancerous lung fibroblast cell line, MRC5 were cultured in DMEM supplemented with 10% FBS and 100 units/mL of penicillin and 100 µg/mL of streptomycin (1x pen/strep). All cell lines were incubated at 310 K with 5% CO2 and 95% humidity for routine maintenance and during drug treatment.
(§4) 2.9 Sulforhodamine (SRB) cytotoxicity assay
(§5) Cells were seeded at 5 × 10^3 cells per well and incubated at 310 K for 48 h. Stock solutions (200 µM) of the complexes were prepared by dissolving the compound in 5% (v/v) DMSO followed by dilution with DMEM and serial dilutions with DMEM were prepared (0.1 µM-200 The cells were exposed to the drug for 24 h. The drug was then removed, and cells were allowed to recover for 72 h, in drug-free media. Cell viability was then determined by the SRB colorimetric assay. The solubilised dye absorbance was analysed on a microplate reader (Thermo Scientific Multiskan FC with Scanit software 4.1) at 470 nm. Data were normalized using Microsoft Excel, and dose-response curves fitted using Origin 2016. The IC50 values

[2] = tested on: IGROV-1 ovarian carcinoma cells; test: Antiproliferative activity, SRB assay; type: cell-based, human
Experimental: as §1, §2, §3, §4, §5

[3] = tested on: MRC-5 normal lung fibroblasts; test: Antiproliferative activity, SRB assay; type: cell-based, human
Experimental: as §1, §2, §3, §4, §5

[4] = tested on: HeLa cervical adenocarcinoma cells; test: Antiproliferative activity, SRB assay; type: cell-based, human
Experimental: as §1, §2, §3, §4
as §5, with “µM-200 µM).” for “µM-200”

[5] = tested on: IGROV-1 human ovarian cancer cells; test: Apoptosis assay, annexin V and PI, flow cytometry; type: cell-based; conditions: IGROV-1, 50 or 100 μM, 24 h
Experimental: Apoptosis assays using annexin V and PI as markers were carried out to investigate possible modes of cell death. For the clinical drug cisplatin, apoptosis is the major mode of cell death. […] Other mechanisms of cell death such as ferroptosis could be investigated in future work. […]
was aspirated, cells washed in ice-cold PBS and then stained with 0.2 mg/mL RNase, 0.05 mg/mL propidium iodide (PI) in PBS for 25 min in the dark and on ice. Excess dye was removed, and cells were re-suspended in PBS. Samples were analysed by flow cytometry using the BD FACSMelody™ Cell Sorter (R653880001) and data analysis on FlowJo™ v10 Software (BD Life […]
IGROV-1 cells (1 x 106) were seeded in a 6-well plate and incubated for 24 h at 310 K. Stock solutions (200 µM) of the complexes were prepared by dissolving the compound in 5% (v/v) DMSO followed by dilution with DMEM and then diluted to desired concentrations. All complexes (50 µM and 100 µM) were added to the wells and incubated for 24 h. […] Samples were analysed by flow cytometry using the BD FACSMelody™ Cell Sorter (R653880001) and data analysis on FlowJo™ v10 Software (BD Life Sciences).9 […]
Percentage of IGROV -1 cancer cells in non -apoptotic, apoptotic (early and late) or necrotic phases determined by flow cytometry after 24 h treatment with Os/Ru L -BSO and glycine complexes. […] Standard deviations calculated for N=3. […]

- IC50 ([1]; A549, SRB assay, 24 h treatment, 72 h recovery): > 200 µM
- IC50 ([2]; IGROV-1, SRB assay, 24 h treatment, 72 h recovery): 14.6 ± 0.5 µM
- IC50 ([4]; SRB assay, 24 h treatment, 72 h recovery): > 200 µM
Substance: [(p-cymene)Os(L-BSO)Cl] [Os-LBSO]
- Activity toward lung cancer cells ([1]; A549, SRB): inactive
- Activity against IGROV-1 ([2]; IGROV-1, SRB): active
- Activity toward normal lung cells ([3]; MRC-5, SRB): highly active; also recorded: some activity
- IC50 ([3]; MRC-5, SRB assay, 24 h treatment, 72 h recovery): 11.8 ± 0.6 µM
- Activity toward HeLa cervical cancer cells ([4]; SRB): inactive
- Apoptosis / mode of cell death vs untreated cells [5]: no significant differences
